≈ marks a conversion by molar mass, not a printed value.
Columns and labels:
[1] = in vitro release of the drug from the tablets, USP Apparatus II; format: physicochemical; conditions: for release rate / release mechanism: without a pH modulator
Description: The in vitro release of the drug from the tablets prepared as above was determined using USP Apparatus II, paddle speed 75 rpm, at 37° C. in 900 ml of dissolution media with pH values 1.2, 1.7 and 6.8. The pH 1.2 and 1.7 media consisted of 0.1N HCl solution adjusted to the appropriate pH by the addition of sodium hydroxide. The pH 6.8 medium consisted of 0.7% sodium dodecyl sulfate in 10 mM phosphate buffer.

[2] = pH-dependent solubility of the beneficial agent; format: physicochemical
Description: The formulation of the instant invention was prepared using 1-(3-chlorophenyl)-4-[1-(4-cyanobenzyl)-5-imidazolyl methyl]-2-piperazinone is used as the beneficial agent. The solubility of the beneficial agent decreases from about 1 g/mL at pH 1 to about 70 μg/mL at pH 7, with the solubility cliff occurring at about pH 3.5.

SMILES: N#Cc1ccc(Cn2cncc2CN2CCN(c3cccc(Cl)c3)C(=O)C2)cc1 [1-(3-chlorophenyl)-4-[1-(4-cyanobenzyl)-5-imidazolylmethyl]-2-piperazinone]
- release rate ([1]; with a pH modulator, over a range of pH levels (FIG. 2)): relatively similar over a range of pH levels
- release rate / release mechanism ([1]; media pH about 2.2 to about 6.8 (FIG. 1)): controlled by the gel extrusion mechanism
- release rate / release mechanism ([1]; pH about 1.2 (FIG. 1)): dominated by dissolution and diffusion
- release rate / release mechanism ([1]; pH about 1.7 (FIG. 1)): both the dissolution/diffusion and gel extrusion mechanisms are repressed
- solubility cliff (pH at which it occurs) [2]: ~3.5 pH
- solubility (in words) ([2]; low pH levels (less than about 2)): very soluble
- solubility (in words) ([2]; near neutral pH levels (greater than about 5)): practically insoluble
- solubility ([2]; pH 1, simulated gastric fluid): ~1000 mg/mL (≈ 2460 mM)
- solubility ([2]; pH 7, aqueous buffer): ~0.07 mg/mL (≈ 0.172 mM)

From patent US20020136744A1, “Sustained release drug dispersion delivery device” (Merck & Co., Inc., priority 1999, published 2002)
